Four compounds from ChEMBL document CHEMBL3046084, “Synthesis and evaluation of p-N,N-dialkyl substituted chalcones as anti-cancer agents” (Med Chem Res, 2013) can be followed below.

Active and inactive are the calls of the source. The calls are words filed in the database; no cut-off is given here.

For experiment [1], the target named is Beta-secretase 1 (Homo sapiens) (UniProt P56817). Nature of the experiment: Inhibition of Homo sapiens (human) recombinant BACE1 using FRET peptide Abz-YIWDEIDLMVLD-DNP as substrate at 50 uM preincubated with enzyme for 30 min prior to substrate addition measured by plate reader analysis.
The next experiment relates to MCF7. Nature of the experiment: Anticancer activity against Homo sapiens (human) MCF7 cells assessed as inhibition of cell viability by SRB assay. Type of experiment: functional, cell-based. Background: The SRB assay estimates cell density from bound dye.
Experiment [2] deals with Mycolicibacterium smegmatis. Briefly: Anti-mycobacterial activity against Mycobacterium smegmatis assessed as diameter of growth inhibition zone at 10 mM. Format: functional. The settings on record: read-out: DIZ.

Usually IC50 stands for the concentration that inhibits the measured activity by half.

Sequence of Beta-secretase 1 (Homo sapiens) (P56817 whole entry): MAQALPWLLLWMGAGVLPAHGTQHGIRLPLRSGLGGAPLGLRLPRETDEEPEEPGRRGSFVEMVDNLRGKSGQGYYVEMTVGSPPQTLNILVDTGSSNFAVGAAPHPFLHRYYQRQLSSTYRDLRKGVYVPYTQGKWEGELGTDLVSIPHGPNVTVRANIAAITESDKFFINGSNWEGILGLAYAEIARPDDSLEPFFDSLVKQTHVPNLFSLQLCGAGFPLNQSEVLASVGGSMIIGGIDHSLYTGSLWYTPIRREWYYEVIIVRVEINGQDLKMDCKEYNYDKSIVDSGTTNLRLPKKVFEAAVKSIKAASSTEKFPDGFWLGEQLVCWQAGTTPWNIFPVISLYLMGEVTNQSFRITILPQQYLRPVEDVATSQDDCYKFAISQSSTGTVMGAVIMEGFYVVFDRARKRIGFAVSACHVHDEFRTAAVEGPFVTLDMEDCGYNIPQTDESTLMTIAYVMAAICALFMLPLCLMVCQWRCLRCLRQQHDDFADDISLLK

On to `COc1cc(C(=O)/C=C/c2ccc(N(Cc3ccccc3)Cc3ccccc3)cc2)cc(OC)c1OC`, for which the inhibition entry in experiment [1] was “Active”. In the case of `O=C(/C=C/c1ccc(N2CCN(CCO)CC2)cc1)c1ccc(Cl)cc1`, the IC50 in the experiment with MCF7 was 50 µM. On to `O=C(/C=C/c1ccc(N(Cc2ccccc2)Cc2ccccc2)cc1)c1ccco1`, for which the zone of inhibition at 10000 µM in experiment [2] came out at 15 mm.

For the compound `O=C(/C=C/c1ccc(N2CCN(CCO)CC2)cc1)c1ccc(Br)cc1`, the IC50 in the experiment with MCF7 amounted to 50 µM.
